Experimental data taken from patent publication US10869465B2, “Transgenic mouse model of retinal vascular disease, method of making, and method of using” (OSAKA UNIVERSITY, priority 2017, dated 2020).

Assays:
Assay type in all cases: in vivo
[1] = test system: retina of the constitutively active Akt-Mer Tg mouse; test: Whole-mount immunostaining (anti PECAM-1) of the retina, retinal vascular morphology (Examples 4, 5)
Description: (§1) To the constitutively active Akt-Mer Tg mouse produced in Example 1, 10 μg/μl 4-OHT was intraperitoneally administered at a dose of 10 μl per day from the fourth day to the sixth day after birth (total dose was 100 μg/day×3 days). On the seventh day after birth, perfusion fixation from the heart was performed using 4% PFA, and then a retinal cup was produced from the removed eyeball. Fluorescent immunostaining using an anti PECAM-1 (platelet endothelial cell adhesion molecule-1: CD31) antibody was performed to stain vascular endothelial cells. Subsequently, a flat-mount image of the retina was obtained using AxioObserver (Zeiss). A mouse to which 4-OHT was not administered was used as a control and subjected to the same treatment, and then an image was obtained.
For the purpose of further investigating the retinal vascular morphology in detail, the vascular lengths and vascular diameters were measured. Specifically, regarding the vascular lengths, a distance from the peripheral edge of the optic papilla to the leading end of the extending blood vessel along a vein was measured using Photoshop CS5 software. The vascular lengths at four positions in one retina were measured and quantified. Regarding the arterial diameters and venous diameters, the thickness of arteries and veins located on the circumference of a circle with a radius of 1500 μm about the optical papilla was measured also using Photoshop CS5 software (**<0.01).
as §1, with “1, 1” for “1, 10”, “was 10” for “was 100”, “days). This dose was one tenth of the dose in the previous examples.” for “days).”, “was produced.” for “was produced from the removed eyeball.”, “PECAM-1 (CD31)” for “PECAM-1 (platelet endothelial cell adhesion molecule-1: CD31)”, “was performed, and” for “was performed to stain vascular endothelial cells. Subsequently,”
For the purpose of further investigating the retinal vascular morphology in detail, the number of microaneurysms was measured. Specifically, regarding the measurement of the number of microaneurysms, the number of microaneurysms in one retina was manually measured using the flat-mount image of the retina.

[2] = test system: retina of the constitutively active Akt-Mer Tg mouse; test: Retinal vascular permeability, Evans blue leakage (Example 6); conditions: 4-OHT i.p. 10 μg/μl, 10 μl per day, 4th to 6th day after birth
Description: To the constitutively active Akt-Mer Tg mouse produced in Example 1, 10 μg/μl 4-OHT was intraperitoneally administered at a dose of 10 μl per day from the fourth day to the sixth day after birth (total dose was […]). On the seventh day after birth, 20 μl of Evans blue was intraperitoneally administered, and 1 hour after this, perfusion fixation from the heart was performed using 4% PFA, and then, the eyeball was removed. An image of the removed eyeball was obtained using an MZ16F stereoscopic microscope (Leica). A mouse to which 4-OHT was not administered was used as a control and subjected to the same treatment, and then an image was obtained.
Furthermore, for the purpose of evaluating the vascular permeability in a quantitative manner, the fluorescence intensity of Evans blue leaking from the retinal blood vessels was measured using an LSM710 confocal microscope (Zeiss) (***<0.001).

[3] = test system: retina of the constitutively active Akt-Mer Tg mouse; test: Retina cup observation by optical microscope after persistent activation of Akt (Example 3); conditions: 4-OHT i.p. 100 μg/day×3 days, 4th to 6th day after birth; observed 7th day; vs mouse without 4-OHT
Description: In this example, an influence of the persistent activation of Akt on the retina in the constitutively active Akt-Mer Tg mouse produced in Example 1 was investigated. Here, the influence on the retina was confirmed by observing the retina of the constitutively active Akt-Mer Tg mouse in which Akt had been persistently activated using an optical microscope.
To the constitutively active Akt-Mer Tg mouse produced in Example 1, 10 μg/μl 4-OHT was intraperitoneally administered at a dose of 10 μl per day from the fourth day to the sixth day after birth (total dose was 100 μg/day×3 days). On the seventh day after birth, perfusion fixation from the heart was performed using 4% paraformaldehyde (abbreviated as “PFA” hereinafter). Then, a retinal cup was produced from the removed eyeball, and an optical micrograph showing the retina was obtained using MZ16F (Leica). A mouse to which 4-OHT was not administered was used as a control and subjected to the same treatment, and then an image was obtained.

[4] = test system: retina of the constitutively active Akt-Mer Tg mouse; test: Retinal cryosection with Hoechst staining, retinal surface layer (Example 7); conditions: 4-OHT i.p. 100 μg/day×3 days; 7th day after birth; vs control
Description: To the constitutively active Akt-Mer Tg mouse produced in Example 1, 10 μg/μl 4-OHT was intraperitoneally administered at a dose of 10 μl per day from the fourth day to the sixth day after birth (total dose was 100 μg/day×3 days). On the seventh day after birth, perfusion fixation from the heart was performed using 4% PFA. The eyeball was removed, and then a retinal cryosection was produced. The nuclei were visualized through Hoechst staining, and an image was obtained using a microscope (Zeiss). A mouse to which 4-OHT was not administered was used as a control and subjected to the same treatment, and then an image was obtained.

[5] = 4-OHT i.p. 100 μg/day×3 days, observed 7th day after birth, vs control

With 4-hydroxytamoxifen [4-OHT] the “number of microaneurysms in one retina (average)” value ([1]; 4-OHT i.p. 10 μg/day×3 days, 7th day after birth, hardly observed in control) was 90, the vascular network formation ([1]; 4-OHT i.p. 100 μg/day×3 days, 4th to 6th day after birth, observed 7th day, vs control) was “the formation of a dense vascular network was observed” and the formation of microaneurysms ([1]; 4-OHT i.p. 100 μg/day×3 days, observed 7th day after birth) was “the formation of microaneurysms, which have a varicose structure, was induced”. The “extension of blood vessels” value [1, 5] was “the extension of blood vessels was delayed compared with the control”, the “vascular diameters (arteries, veins, capillaries)” value [1, 5] was “the overall retinal blood vessels significantly expanded” and the formation of microaneurysms ([1]; low-concentration 4-OHT i.p. 10 μg/day×3 days, observed 7th day after birth) was “the formation of microaneurysms was also induced”. For the same substance, the “vascular permeability (leakage of Evans blue from blood vessels)” value ([2]; Evans blue i.p. on 7th day, 1 hour) was “the vascular permeability was increased”, the “fluorescence intensity of Evans blue leaking from the retinal blood vessels” value ([2]; confocal microscope, ***<0.001 vs control) was “significantly larger than that in the control” and the retinal hemorrhage [3] was “punctuate retinal hemorrhage was observed”. The “swelling of overall retina, particularly the surface layer” value [4] was “significantly swollen”.
